From the NIST ThermoML archive (doi:10.1021/acs.jced.9b00173)
± gives the expanded uncertainty stated by the source.

Assay: xn = mol fraction of the nth substance listed
Conditions: 303.15 K; 101.3 kPa; Liquid; Concentric cylinders viscometry; x1 = 0.5

SMILES | viscosity
c1nnn[nH]1 [1H-tetrazole] + CCCC[N+](CCCC)(CCCC)CCCC.[Cl-] | 87.88 ± 2.8 mPa·s
c1nc[nH]n1 [1H-1,2,4-triazole] + CCCC[P+](CCCC)(CCCC)CCCC.[Cl-] | 67.23 ± 2 mPa·s
c1nnn[nH]1 [1H-tetrazole] + CCCC[N+](CCCC)(CCCC)CCCC.[Br-] | 279.15 ± 15 mPa·s
c1nnn[nH]1 [1H-tetrazole] + CCCC[P+](CCCC)(CCCC)CCCC.[Cl-] | 40.22 ± 1.5 mPa·s
c1nnn[nH]1 [1H-tetrazole] + CCCC[P+](CCCC)(CCCC)CCCC.[Br-] | 68.26 ± 2.1 mPa·s

Same assay, conditions: 303.15 K; 101.3 kPa; Liquid; Concentric cylinders viscometry; x2 = 0.5

SMILES | viscosity
CCCC[P+](CCCC)(CCCC)CCCC.[Cl-] [tetrabutylphosphonium chloride] + c1c[nH]cn1 | 52.34 ± 1.6 mPa·s
